PubChem BioAssay (NCI)
“And” between values parts separate entries of the source, which are not always exact repeats. Identical values can stand only once.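 Assay format: 96-well plates, 48-hour exposure. Here, GI50 denotes the concentration required for 50% inhibition of growth. TGI: total growth inhibition.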

What follows are compounds tested on COLO 205 colon (assay: NCI-60 cell line screen, 48 h).
Compound `COC(C(O)CO)C(O)C(O)C(=O)NNc1ccccc1` (configuration not stated) has a TGI of 28.7 µM. For `NS(=O)(=O)c1ccc(NC2(C(=O)O)CCCC2)cc1`, the TGI was over 100 µM. `O=C(O)C1OC(n2cc(F)c(=O)[nH]c2=O)CC1O` (configuration not stated) showed a TGI of over 100 µM. Compound `N=C1C(c2nc3ccccc3s2)=C(O)CN1c1cc(C(F)(F)F)ccc1Cl` has a GI50 of 30.8 µM and a TGI of over 100 µM. For `CC(=O)CSCc1ccccn1`, the TGI was over 100 µM. Work on `COc1ccccc1CNCCCN1C(=O)c2ccc3c4c(ccc(c24)C1=O)C(=O)N(CCCOCCCCOCCCN)C3=O` yielded a GI50 of 0.233 µM and a TGI of 0.454 µM. For `CCOC(=O)[C@@H](N)CCC(=O)N[C@@H](CSCc1ccccc1)C(=O)N[C@@H](C(=O)OCC)c1ccccc1`, the GI50 was 17.4 µM and the TGI was 34.2 µM. Work on `COc1ccc(Nc2c3ccccc3nc3occc23)cc1` yielded a GI50 of 2 µM. For `COc1cc(/C=C/c2cc(/C=C/c3ccc(O)c(OC)c3)n(C(=O)Nc3ccc(F)c(Cl)c3)n2)ccc1O`, the GI50 was 1.76 µM and the TGI was 3.25 µM. `CCCCCCCC/C=C/CCCCCCCC(=O)OC[C@H]1O[C@@H](n2ccc(N)nc2=O)C(F)(F)[C@@H]1O` gave a GI50 of 0.131 µM and a TGI of over 37.9 µM. `NS(=O)(=O)c1ccc(N=Nc2c(O)[nH]c3ccc(-c4cnco4)cc23)cc1` showed a GI50 of over 25 µM and a TGI of over 25 µM. `COc1cc2c3c(n(CCCNC(=O)OCC4c5ccccc5-c5ccccc54)c(=O)c2cc1OC)-c1cc2c(cc1/C3=C\CCNC(=O)OCC1c3ccccc3-c3ccccc31)OCO2` showed a GI50 of over 28 µM and a TGI of over 50 µM. In the case of `N#C/C(=C1C=C(Br)/C(=N\O)C=C\1Cl)c1cccc2ccccc12`, the TGI is reported as 5.86 µM. Work on `COc1cc2nc3cc([N+](=O)[O-])ccc3c(NCCCNCCO)c2cc1OC` yielded a GI50 of 0.162 µM and a TGI of 0.351 µM. Work on `COC(=O)[C@@H](C)CNS(=O)(=O)N(c1cc(C(F)(F)F)cc(C(F)(F)F)c1)C1CCN(Cc2ccc(F)cc2)CC1` yielded a GI50 of 1.88 µM and a TGI of 3.59 µM. `C=C1C(=O)O[C@@H]2/C=C(\C)CC/C=C(/COC(C)=O)C[C@@H](OC(C)=O)[C@@H]12` gave a TGI of 14.1 µM. In the case of `COC(=O)[C@H](C)NC(=O)NC(=O)NC(=O)CI`, the GI50 is reported as 2.54 µM and the TGI is reported as 6.49 µM. `COc1cc2c(c(OC)c1OC)-c1ccc(OC)c(=O)cc1[C@@H](NC(=O)c1ccccc1)CC2` was tested, and the GI50 was 0.00399 µM and the TGI was 0.0153 µM and 0.0138 µM. Work on `CN1C/C=C\CCOc2cccc(c2)-c2ccnc(n2)Nc2cccc(c2)C1` yielded a GI50 of 0.024 µM and a TGI of 0.0762 µM. With `C[C@@]12CC=C3c4nc(Nc5cccc(O)c5)sc4CC[C@]3(C)[C@H]1CC[C@]1(C)C(=O)CC[C@@H]21` the GI50 was 2.17 µM and the TGI was 4.38 µM. `CN1C(=O)c2cccc3cc([N+](=O)[O-])cc(c23)C1=O` showed a TGI of over 10 µM. `Oc1ccccc1C(Sc1nc2ccccc2s1)Sc1nc2ccccc2s1` gave a TGI of over 100 µM. `COC1=C(C)C(=O)c2c(c(COC(N)=O)c3n2CC2C3N2C)C1=O` (configuration not stated) gave a TGI of 0.119 µM.

These compounds were tested on HL-60(TB) leukemia (assay: NCI-60 cell line screen, 48 h).
Work on `O=C(N/N=C/c1ccc(Cl)cc1)c1ccc(C(F)(F)F)nc1Nc1cccc(C(F)(F)F)c1` yielded a GI50 of 1.45 µM and a TGI of 5.69 µM. Compound `COc1cc2ncnc(Nc3ccc(C)c(O)c3)c2cc1OC` has a GI50 of over 25 µM and a TGI of over 25 µM. `COC(=O)C1=CNC=C(C(=O)OC)C1C1=CC(=O)C(C)=CC1=O` showed a GI50 of 1.71 µM and a TGI of 5.88 µM. In the case of `C=C1C(=O)O[C@H]2[C@H]1CC/C(COC(=O)C(=O)c1cn(Cc3ccccc3)c3ccccc13)=C\CC[C@@]1(C)O[C@@H]21`, the GI50 is reported as 2.26 µM and the TGI is reported as 7 µM. For `Cc1cc(S(=O)(=O)Nc2nnc(-c3ccccc3)c(-c3ccccc3)n2)c(SCC(N)=O)cc1Cl`, the GI50 was 53.3 µM and the TGI was over 100 µM. In the case of `COC(C(O)CO)C(O)C(O)C(=O)NNc1ccccc1` (configuration not stated), the TGI is reported as over 100 µM. With `NS(=O)(=O)c1ccc(NC2(C(=O)O)CCCC2)cc1` the TGI was over 100 µM. `O=C(O)C1OC(n2cc(F)c(=O)[nH]c2=O)CC1O` (configuration not stated) was tested, and the TGI was over 100 µM. With `N=C1C(c2nc3ccccc3s2)=C(O)CN1c1cc(C(F)(F)F)ccc1Cl` the GI50 was 5.75 µM and the TGI was 30.2 µM. Compound `CC(=O)CSCc1ccccn1` has a TGI of 64.5 µM. `COc1ccccc1CNCCCN1C(=O)c2ccc3c4c(ccc(c24)C1=O)C(=O)N(CCCOCCCCOCCCN)C3=O` gave a GI50 of 0.668 µM and a TGI of 2.06 µM. Compound `CCOC(=O)[C@@H](N)CCC(=O)N[C@@H](CSCc1ccccc1)C(=O)N[C@@H](C(=O)OCC)c1ccccc1` has a GI50 of 18.5 µM and a TGI of 39.5 µM. `COc1ccc(Nc2c3ccccc3nc3occc23)cc1` showed a GI50 of 1.47 µM.
